Like-named read-outs stand apart in the source and are kept apart here.
How the values were obtained:
Type in all cases: cell-based
[1] = test system: SKBR3 cells express WT PI3Ka; test: In vitro cell proliferation, SKBR3 cells (CellTiter-Glo); conditions: inhibition of proliferation
Method in brief: (§1)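 EC50 values derive from a four-parameter logistic fit of luminescence-based (CellTiter-Glo) inhibition, referenced to 0.1% DMSO and 10 uM Alpelisib controls. Compound exposure lasted 72 h at 37 °C.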

[2] = test system: phosphorylation of AKT (pAKT) in SKBR3 cells express WT PI3Ka; test: In vitro cell pAKT (Ser473) HTRF, SKBR3 cells; conditions: cellular pAKT
Method in brief: (§2)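 pAKT (Ser473) was quantified by HTRF in lysates from cells exposed 6 h at 37 °C to 10-point compound series, with T47D in insulin-supplemented RPMI/10% FBS and SKBR3 in McCoy's 5a/10% FBS. Controls: 0.1% DMSO (high) and 10 uM alpelisib (low). IC50 from sigmoidal curve fitting.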

[3] = test system: phosphorylation of AKT (pAKT) in T47D cells expressing mutant PI3Ka (H1047R); test: In vitro cell pAKT (Ser473) HTRF, T47D cells; conditions: cellular pAKT, T47D cells, mutant PI3Ka (H1047R), 6 hours, read-out: Avg T-47D IC50
Method in brief: as §2

[4] = test system: T47D cells expressing mutant PI3Ka (H1047R); test: In vitro cell proliferation, T47D cells (CellTiter-Glo); conditions: inhibition of proliferation, read-out: Avg T-47D EC50
Method in brief: as §1

Compound	EC50 ([1]; Homo sapiens, SK-BR-3, 72 h) [µM]	IC50 ([2]; Homo sapiens, SK-BR-3, 6 h) [µM]	IC50 ([3]; Homo sapiens, T47D, 6 h) [µM]	EC50 ([4]; Homo sapiens, T47D, 72 h) [µM]	EC50 ([1]; 72 hours) [µM]	IC50 ([2]; 6 hours) [µM]	IC50 [3] [µM]	EC50 ([4]; 72 hours) [µM]
Cc1ccc(N2CCN(c3cc4c([C@@H](C)Nc5ccccc5C(=O)O)cc(F)cc4c(=O)n3C)CC2)cn1 [Example 353]	2 to 15	0.5 to 2	0.001 to 0.5	0.001 to 0.5	–	–	–	–
C[C@@H](Nc1ccccc1C(=O)O)c1cc(F)cc2c(=O)n(C)c(-c3ccc(OC4COC4)nc3)cc12 [Example 507]	–	–	–	–	> 15	> 15	0.001 to 0.5	0.5 to 2
Cc1cc(C(C)Nc2ccccc2C(=O)O)c2cc(N3CCN4CC(F)(F)C[C@@H]4C3)n(C)c(=O)c2c1 (some centres unmarked) [Example 140]	> 15	> 15	0.001 to 0.5	0.001 to 0.5	–	–	–	–
Cc1cc([C@@H](C)Nc2cccc(F)c2C(=O)O)c2cc(-c3ccc(C(C)(C)F)nc3)n(C)c(=O)c2c1 [Example 326]	> 15	> 15	0.001 to 0.5	0.001 to 0.5	–	–	–	–
Cc1cc([C@@H](C)Nc2ccccc2C(=O)O)c2cc(-c3cnc(C(F)(F)F)nc3)n(C)c(=O)c2c1 [Example 288]	> 15	> 15	0.001 to 0.5	0.001 to 0.5	–	–	–	–
Cc1cc([C@@H](C)Nc2ccccc2C(=O)O)c2cc(N3CCN(c4cccc(Cl)c4)CC3)n(C)c(=O)c2c1 [Example 160]	–	–	–	–	> 15	> 15	0.001 to 0.5	0.001 to 0.5
COCc1ncc(-c2cc3c([C@@H](C)Nc4ccccc4C(=O)O)cc(C)cc3c(=O)n2C)cc1F [Example 247]	> 15	> 15	0.001 to 0.5	0.001 to 0.5	–	–	–	–
Cc1cc([C@@H](C)Nc2ccccc2C(=O)O)c2cc(-c3cnc(C(C)(F)F)c(F)c3)n(C)c(=O)c2c1 [Example 291]	> 15	> 15	0.001 to 0.5	0.001 to 0.5	–	–	–	–
CCc1ncc(-c2cc3c([C@@H](C)Nc4ccccc4C(=O)O)cc(F)cc3c(=O)n2C)s1 [Example 524]	> 15	> 15	0.001 to 0.5	0.001 to 0.5	–	–	–	–
Cc1cc([C@@H](C)Nc2ccccc2C(=O)O)c2cc(N3CCN(Cc4ccccn4)CC3)n(C)c(=O)c2c1 [Example 175]	2 to 15	> 15	0.001 to 0.5	0.001 to 0.5	–	–	–	–
Cc1cc(C(C)Nc2ccccc2C(=O)O)c2cc(N3CCC4(CCCCO4)CC3)n(C)c(=O)c2c1 (single isomer, unassigned) [Example 168]	–	–	–	–	> 15	2 to 15	0.001 to 0.5	0.001 to 0.5
Cc1cc([C@@H](C)Nc2cccc(F)c2C(=O)O)c2cc(C3CC3(F)F)n(C)c(=O)c2c1 (single isomer, unassigned) [Example 421]	–	–	–	–	> 15	> 15	0.001 to 0.5	0.5 to 2
Cc1cc([C@@H](C)Nc2ccccc2C(=O)O)c2cc(-c3cnc(CF)nc3)n(C)c(=O)c2c1 [Example 369]	> 15	> 15	0.001 to 0.5	0.001 to 0.5	–	–	–	–
Cc1cc([C@@H](C)Nc2ccccc2C(=O)O)c2cc(N3CCN(c4ccccn4)CC3)n(C)c(=O)c2c1 [Example 186]	2 to 15	2 to 15	0.001 to 0.5	0.001 to 0.5	–	–	–	–
Cc1cc(C(C)Nc2ccc(Cl)nc2C(=O)O)c2cc(N3CCC(C)(C)CC3)n(C)c(=O)c2c1 (centres unmarked) [Example 88]	2 to 15	> 15	0.5 to 2	0.5 to 2	–	–	–	–
Cc1cc([C@@H](C)Nc2ccccc2C(=O)O)c2cc(NCc3ccc(F)cc3)n(C)c(=O)c2c1 [Example 222]	> 15	> 15	2 to 15	2 to 15	–	–	–	–
Cc1cc([C@@H](C)Nc2ccccc2C(=O)O)c2cc(N3CCN(CC4OCCO4)CC3)n(C)c(=O)c2c1 [Example 157]	> 15	> 15	0.001 to 0.5	0.001 to 0.5	–	–	–	–
Cc1cc([C@@H](C)Nc2ccccc2C(=O)O)c2cc(N3CC4CC3CN4CC(F)(F)F)n(C)c(=O)c2c1 (single isomer, unassigned) [Example 211]	> 15	> 15	0.001 to 0.5	–	–	–	–	0.5 to 2
Cc1cc(C(C)Nc2ccccc2C(=O)O)c2cc(N3Cc4ccc(F)c(F)c4C3)n(C)c(=O)c2c1 (single isomer, unassigned) [Example 178]	–	–	–	–	> 15	> 15	0.001 to 0.5	0.5 to 2

Compound	EC50 ([1]; Homo sapiens, SK-BR-3, 72 h) [µM]	IC50 ([2]; Homo sapiens, SK-BR-3, 6 h) [µM]	IC50 ([3]; Homo sapiens, T47D, 6 h) [µM]	EC50 ([4]; Homo sapiens, T47D, 72 h) [µM]	EC50 ([1]; 72 hours) [µM]	IC50 ([2]; 6 hours) [µM]	IC50 [3] [µM]	EC50 ([4]; 72 hours) [µM]
CCc1ncccc1N1CCN(c2cc3c([C@@H](C)Nc4ccccc4C(=O)O)cc(C)cc3c(=O)n2C)CC1 [Example 257]	2 to 15	2 to 15	0.001 to 0.5	0.001 to 0.5	–	–	–	–
CC(Nc1ccccc1C(=O)O)c1cc(F)cc2c(=O)n(C)c(-c3ccc(OC4CC4)nc3)c(F)c12 (centres unmarked) [Example 561]	–	–	–	–	> 15	> 15	0.001 to 0.5	0.001 to 0.5
C[C@@H](Nc1cccc(F)c1C(=O)O)c1cc(F)cc2c(=O)n(C)c(-c3cnc(-c4cncc(F)c4)c(F)c3)cc12 [Example 404]	> 15	> 15	0.001 to 0.5	0.001 to 0.5	–	–	–	–
COc1ncc(-c2cc3c([C@@H](C)Nc4ccccc4C(=O)O)cc(F)cc3c(=O)n2C)s1 [Example 513]	> 15	> 15	0.001 to 0.5	0.001 to 0.5	–	–	–	–
Cc1cc([C@@H](C)Nc2ccccc2C(=O)O)c2cc(N3CC(CC(F)(F)F)C3)n(C)c(=O)c2c1 [Example 405]	> 15	> 15	0.001 to 0.5	0.5 to 2	–	–	–	–
CC(Nc1ccccc1C(=O)O)c1cc(F)cc2c(=O)n(C)c(-c3ccc(OC4CC(F)C4)nc3)cc12 (centres unmarked) [Example 447]	–	–	–	–	> 15	> 15	0.001 to 0.5	0.001 to 0.5
Cc1cc(C(C)Nc2ccccc2C(=O)O)c2cc(N3CCN4C(=O)OC[C@H]4C3)n(C)c(=O)c2c1 (single isomer, unassigned) [Example 142]	–	–	–	–	> 15	> 15	2 to 15	0.5 to 2
C[C@@H](Nc1ccccc1C(=O)O)c1cc(F)cc2c(=O)n(C)c(-c3cc(F)c4nn(C(F)F)cc4c3)cc12 [Example 496]	> 15	> 15	0.001 to 0.5	0.5 to 2	–	–	–	–
C[C@@H](Nc1ccccc1C(=O)O)c1cc(F)cc2c(=O)n(C)c(-c3cnc(-c4cn(C)nc4F)c(F)c3)cc12 [Example 543]	–	–	–	–	> 15	> 15	0.001 to 0.5	0.001 to 0.5
Cc1cc(C(C)Nc2ccccc2C(=O)O)c2cc(N3C[C@@H]4[C@@H](C#N)[C@@H]4C3)n(C)c(=O)c2c1 (stereo partly drawn) [Example 15, 2-((1-(3-((1R,5S,6r)-6-cyano-3-azabicyclo[3.1.0]hexan-3-yl)-2,7-dimethyl-1-oxo-1,2-dihydroisoquinolin-5-yl)ethyl)amino)benzoic acid]	–	–	–	–	> 15	> 15	2 to 15	0.5 to 2
Cc1cc(C(C)Nc2ccccc2C(=O)O)c2cc(N3CC(C)(O)C3)n(C)c(=O)c2c1 (single isomer, unassigned) [Example 182]	–	–	–	–	> 15	> 15	2 to 15	2 to 15
COC1(C)CN(c2cc3c(C(C)Nc4ccccc4C(=O)O)cc(C)cc3c(=O)n2C)C1 (single isomer, unassigned) [Example 213]	–	–	–	–	> 15	> 15	0.001 to 0.5	0.5 to 2
Cc1cc([C@@H](C)Nc2ccccc2C(=O)O)c2cc(N3CCN(c4cccc(C#N)c4)CC3)n(C)c(=O)c2c1 [Example 161]	–	–	–	–	2 to 15	2 to 15	0.001 to 0.5	0.001 to 0.5
C[C@@H](Nc1ccccc1C(=O)O)c1cc(F)cc2c(=O)n(C)c(-c3cnc(C4CC4)s3)cc12 [Example 344]	> 15	> 15	0.001 to 0.5	0.001 to 0.5	–	–	–	–
COCCC(=O)N1CCN(c2cc3c(C(C)Nc4ccccc4C(=O)O)cc(C)cc3c(=O)n2C)CC1 (centres unmarked) [Example 95]	> 15	> 15	0.5 to 2	0.5 to 2	–	–	–	–
COc1cccc(N[C@H](C)c2cc(C)cc3c(=O)n(C)c(N4CCN(CC(F)(F)F)CC4)cc23)c1C(=O)O [Example 300]	> 15	> 15	0.5 to 2	0.5 to 2	–	–	–	–
C[C@@H](Nc1cccc(F)c1C(=O)O)c1cc(F)cc2c(=O)n(C)c(-c3cnc(C(F)(F)F)nc3)cc12 [Example 372]	–	–	–	–	> 15	> 15	2 to 15	2 to 15
Cc1cc([C@@H](C)Nc2cccc(F)c2C(=O)O)c2cc(C3C[C@H]3C)n(C)c(=O)c2c1 (single isomer, unassigned) [Example 356]	–	–	–	–	> 15	> 15	0.001 to 0.5	0.001 to 0.5
Cc1cc([C@@H](C)Nc2ccc(Cl)nc2C(=O)O)c2cc(N3CCN(CC(F)(F)F)CC3)n(C)c(=O)c2c1 [Example 336]	2 to 15	2 to 15	0.001 to 0.5	0.001 to 0.5	–	–	–	–
